Measured values published in patent US12365671B2, “Crystalline hydrate of topramezone sodium salt and preparation method therefor” (ROTAM AGROCHEM INTERNATIONAL COMPANY LIMITED, priority 2021, dated 2025).

Assay: Formulation preparation behaviour (jet pulverization, granulation)
Format: physicochemical
Conditions: e.g. soluble granule, sodium salt
Excerpt: The crystalline 2.5 hydrate of topramezone sodium salt of the present invention has huge advantages over the anhydrous form of topramezone sodium salt with respect to formulation preparation. The anhydrous topramezone sodium salt can be prepared according to the preparation method of the topramezone potassium salt alike compound reported in US2002025910A. […] Furthermore, the formulation preparation process is difficult. For example, when preparing the soluble granule, creaming and caking of the ingredients frequently occurs, and granulation thus becomes difficult.

SMILES	behaviour during jet pulverization / granulation
Cc1c(C(=O)c2cnn(C)c2[O-])ccc(S(C)(=O)=O)c1C1=NOCC1.[Na+] [anhydrous topramezone sodium salt]	easy to agglomerate during jet pulverization
Cc1c(C(=O)c2cnn(C)c2[O-])ccc(S(C)(=O)=O)c1C1=NOCC1.[Na+] [crystalline 2.5 hydrate of topramezone sodium salt]	can be granulated easily
